The assay deals with 40 L of mesothelioma cell lines. The experiment in a line: cell plate cloning experiment to detect cell proliferation. It counts as cell-based. As to conditions: 30 μM pretreatment; 200 cells/well; results after 10 days; compared with gefitinib 30 μM; FIG. 2. Here is the method: Effects of the compound prepared in Example 1 and gefitinib were tested and compared. Experiment 1 included cell plate cloning experiments to detect cell proliferation.
• (1) 30 μM of gefitinib was used to pretreat one group of 40 L of mesothelioma cell lines, 30 μM of the compound prepared in Example 1 were used to pretreat another group of 40 L of mesothelioma cell lines, and phosphate-buffered saline (PBS) was used as a blank control group; • (2) The 40 L of cell lines in different treatment groups were collected; the cells were counted under a microscope, the cells were inoculated in a six-well plate by adjusting the number of cells to 200 cells/well (2 mL) with corresponding complete medium, and the cells were cultured in an incubator containing 5% CO2 at 37° C.; • (3) Fresh complete medium was changed every 3 days; • (4) After about 7-10 days of continuous culture, the culture medium was discarded, the cells were carefully washed with 1×PBS 3 times, and 1 mL of 4% paraformaldehyde was added to each culture dish to fix the cells for 30 minutes. The paraformaldehyde was discarded, and the cells were washed again with 1×PBS 3 times. The cells were stained with crystal violet at room temperature for 10 min, the staining solution was discarded, and the cells were washed with 1×PBS 3 times; and • (5) the cells were pictured with a camera and counted for statistical analysis. 2. […]

For the molecule `COc1cc2ncnc(Nc3ccc(F)c(Cl)c3)c2cc1NC(=O)CBr` [Example 1, 4-((4-fluoro-3-chlorophenyl)amino)-7-methoxy-6-((N-bromoacetyl)amino)quinazoline], the “ability in inhibiting the proliferation of tumor cells (plate cloning, colony count)” value is given as “significantly better ability in inhibiting the proliferation of tumor cells than gefitinib”.

The values above are taken from US12435045B2, “Tyrosine kinase inhibitors and pharmaceutical application thereof” (JIANGSU CONCORD BIOTECHNOLOGY CO., LTD, priority 2021, dated 2025).
